Data taken from patent publication US4587359A, “Amine-carbamoylborane adducts” (The United States of America as represented by the Secrtary …, priority 1984, dated 1986).
Read-outs that look alike come from different tables or passages of the source.

Columns and labels:
[1] = Thermal stability / vacuum distillation; assay type: physicochemical; settings: for thermal stability: higher temperature (>100° C.); for decomposition when subjected to vacuum distillation: oil-bath temperatures >100° C.
Description: The parent compound 1, trimethylamine-(ethylcarbamoyl)borane was prepared as previously described in B. F. Spielvogel et al., J. Am. Chem. Soc., 98 p. 5702 (1976) and I. H. Hall et al., J. Pharm. Sci., 68, p. 685 (1979) by refluxing (under dry N2) a solution of Me3 N.BH2 CN in CH2 Cl2 with 2 equivalents of triethyloxonium tetrafluoroborate for 24 hours. The compounds Me3 N.BH2 CN and triethyloxonium tetrafluoroborate are referred to in P. Wisian-Neilson et al., Inorg. Chem. 17, p. 2327 (1978) and H. Meerwein, Org. Synth., 46, p. 113 (1966), respectively. The resulting ethylnitrilium salt (not isolated) was hydrolyzed at 0° C. with 1N NaOH until basic and finally purified by vacuum distillation, giving a 75% yield. Dimethylamine-(ethylcarbamoyl)borane was made from 1 by a (CH3)2NH-exchange reaction in a pressure-glass vessel at room temperature for 8 days, and ca. 80% conversion (by ^1 H NMR) was obtained. Longer reaction periods (2-3 weeks) gave similar results. Amide 2 is readily purified by washing a CH2 Cl2 solution of the crude mixture with a small quantity of water whereby 1 is removed. The bulk CH2 Cl2 solution containing the product was dried, and rotary evaporation of the solvent gave 78% yield. Finally, the product was distilled under reduced pressure to get an analytical sample. […] The methylamine-(ethylcarbamoyl)borane and ammonia-(ethylcarbamoyl)borane were similarly prepared from 1 by exchange reactions with CH3 NH2 and NH3, respectively, in a glass pressure reaction vessel at room temperature for 1 week. The crude amide was purified by recrystallization from CH2 Cl2 /pentane, giving a 65% yield, whereas the ammonia analogue was recrystallized from distilled water, giving a 60% yield.

tumor = settings: in mice; cited from earlier work
[2] = in mice; cited from earlier work
[3] = animal model studies; cited from earlier work
[4] = animal model studies; cited from earlier work; remark: listed apart in the source
Ehrlich ascites cells = test: Ehrlich Ascites tumor screen for antineoplastic activity; assay type: in vivo; settings: 20 mg/kg/day intraperitoneally, days 1-9; CF male mice; day 10
Description: Use of compounds according to this invention in Ehrlich Ascites tumor screens for antineoplastic activity has been investigated.
CF male mice (~25 g) were inoculated intraperitoneally on day 0 with 2×10^6 Ehrlich ascites cells. Compositions containing compounds of this invention were prepared in 0.05% polysorbate 80 by homogenation and injected intraperitoneally on days 1-9 at 20 mg/kg/day. On day 10, the mice were sacrificed and the cells from the peritoneal cavity harvested. The total ascites tumor and packed cell (ascrit) volumes were determined and used to calculate the percent inhibition according to the procedure described in C. Piantadosi et al., J. Pharm. Sci., 58, p. 821 (1969). […] Mercaptopurine and mephalan were used as positive controls in the screen. Other pharmaceutically acceptable carriers, diluents, adjuvants or dosages are readily ascertainable by the skilled artisan.

[5] = Tissue distribution study of boron (boron neutron capture therapy); assay type: in vivo, BALB/c mice; settings: mouse, ip, 40 mg/kg, single saline i.p. injection, 40 μg boron per gram body weight; for concentration at 1 h: 1 hr post injection
Description: (§1) In a tissue distribution study relating to treatment of tumor tissue in an animal by boron neutron capture therapy, a representative compound of this invention MeNH2.BH2 C(O)NHEt was administered in a single saline intraperitoneal injection sufficient to provide 40 μg boron per gram body weight to BALB/c mice carrying Harding-Passey melanorna.

Harding-Passey melanorna = test: as above; assay type: in vivo, BALB/c mice; settings: for Boron uptake, blood / Boron uptake, brain / Boron uptake, tumor: single saline i.p. injection, 40 μg boron per gram body weight
Description: as §1

Toxicity in BALB/C mice = assay type: in vivo
[6] = 1 hr post injection, 40 mg/kg, 60 min

SMILES: CCNC(=O)[BH2-][N+](C)(C)C [Trimethylamine-(ethylcarbamoyl)borane, Trimethylamine-(Ethylcarbamoyl)borane]
- thermal stability [1]: thermally unstable
- decomposition when subjected to vacuum distillation [1]: considerable decomposition
- antitumor activity (tumor): significant
- antihyperlipidemic activity [2]: significant
- antiinflammatory activity [3]: significant
- antiarthritic activity [4]: significant

SMILES: CCNC(=O)[BH2-][NH2+]C [MeNH2.BH2 C(O)NHEt, Methylamine-(ethylcarbamoyl)borane]
- percent inhibition (ascites tumor and packed cell volumes) (Ehrlich ascites cells): 91%
- concentration at 1 h ([5]; blood, read-out: Boron uptake, blood): 54800 ng/g
- concentration at 1 h ([5]; brain, read-out: Boron uptake, brain): 45300 ng/g
- concentration at 1 h ([5]; tumor, read-out: Boron uptake, tumor): 51300 ng/g
- concentration at 12 h ([5]; tumor, 12 hr post injection, read-out: Boron uptake, tumor): 3800 ng/g
- Boron uptake, blood (Harding-Passey melanorna; [6]): 54.4 μg B per gram tissue
- Boron uptake, brain (Harding-Passey melanorna; [6]): 39.8 μg B per gram tissue
- Boron uptake, tumor (Harding-Passey melanorna; [6]): 48.7 μg B per gram tissue
- Boron uptake, blood (Harding-Passey melanorna; 12 hr post injection): 0 μg B per gram tissue
- Boron uptake, brain (Harding-Passey melanorna; 12 hr post injection): 0 μg B per gram tissue
- Boron uptake, tumor (Harding-Passey melanorna; 12 hr post injection, 40 mg/kg, 720 min): 2.8 μg B per gram tissue
- uptake for conventional therapy, measured against the standard in clinical use Na2 B12 H11 SH (Harding-Passey melanorna; in words): inadequate
- concentration of the boron-containing compound in the tumor tissue (Harding-Passey melanorna; in words, BALB/c mice): some preferential differential concentration
- toxicity (Toxicity in BALB/C mice): not toxic
- solubility (Solubility): good

SMILES: C[N+](C)(C)[BH2-]C(=O)O [Me3 N.BH2 COOH]
- antitumor activity (tumor): significant
- antihyperlipidemic activity [2]: significant

SMILES: CCNC(=O)[BH2-][NH+](C)C [Me2 NH.BH2 C(O)NHEt, Dimethylamine-(Ethylcarbamoyl)borane]
- thermal stability [1]: thermally unstable
- decomposition when subjected to vacuum distillation [1]: considerable decomposition
- percent inhibition (ascites tumor and packed cell volumes) (Ehrlich ascites cells): 72.2%
